Laboratory results: PubChem BioAssay (NCI)
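Test compounds were applied to cells in 96-well plates for 48 hours at 5 doses. The concentration for full growth arrest is given as TGI.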

Columns and labels:
Assay in all cases: DTP human tumour cell line panel, 48 h
786-0 renal = tested on: 786-0 renal
A498 renal = tested on: A498 renal
A549 NSCLC = tested on: A549 NSCLC
ACHN renal = tested on: ACHN renal
BT-549 breast = tested on: BT-549 breast
CAKI-1 renal = tested on: CAKI-1 renal
CCRF-CEM leukemia = tested on: CCRF-CEM leukemia
COLO 205 colon = tested on: COLO 205 colon
DU-145 prostate = tested on: DU-145 prostate
EKVX NSCLC = tested on: EKVX NSCLC
HCC-2998 colon = tested on: HCC-2998 colon
HCT-116 colon = tested on: HCT-116 colon
HCT-15 colon = tested on: HCT-15 colon
HL-60(TB) leukemia = tested on: HL-60(TB) leukemia
HOP-62 NSCLC = tested on: HOP-62 NSCLC
HOP-92 NSCLC = tested on: HOP-92 NSCLC
HS 578T breast = tested on: HS 578T breast
HT29 colon = tested on: HT29 colon
IGROV1 ovarian = tested on: IGROV1 ovarian
K-562 leukemia = tested on: K-562 leukemia
KM12 colon = tested on: KM12 colon
LOX IMVI melanoma = tested on: LOX IMVI melanoma
M14 melanoma = tested on: M14 melanoma
MALME-3M melanoma = tested on: MALME-3M melanoma
MCF7 breast = tested on: MCF7 breast
MDA-MB-231 breast = tested on: MDA-MB-231 breast
MDA-MB-435 = tested on: MDA-MB-435
MDA-N = tested on: MDA-N
MOLT-4 leukemia = tested on: MOLT-4 leukemia
NCI-H226 lung = tested on: NCI-H226 lung
NCI-H23 lung = tested on: NCI-H23 lung
NCI-H460 lung = tested on: NCI-H460 lung
NCI-H522 lung = tested on: NCI-H522 lung
NCI/ADR-RES ovarian = tested on: NCI/ADR-RES ovarian
OVCAR-3 ovarian = tested on: OVCAR-3 ovarian
OVCAR-4 ovarian = tested on: OVCAR-4 ovarian
OVCAR-5 ovarian = tested on: OVCAR-5 ovarian
OVCAR-8 ovarian = tested on: OVCAR-8 ovarian
PC-3 prostate = tested on: PC-3 prostate
RPMI-8226 leukemia = tested on: RPMI-8226 leukemia
RXF 393 renal = tested on: RXF 393 renal
SF-268 CNS = tested on: SF-268 CNS
SF-295 CNS = tested on: SF-295 CNS
SF-539 CNS = tested on: SF-539 CNS
SK-MEL-2 melanoma = tested on: SK-MEL-2 melanoma
SK-MEL-28 melanoma = tested on: SK-MEL-28 melanoma
SK-MEL-5 melanoma = tested on: SK-MEL-5 melanoma
SK-OV-3 ovarian = tested on: SK-OV-3 ovarian
SN12C renal = tested on: SN12C renal
SNB-19 CNS = tested on: SNB-19 CNS
SNB-75 CNS = tested on: SNB-75 CNS
SR leukemia = tested on: SR leukemia
SW-620 colon = tested on: SW-620 colon
T-47D breast = tested on: T-47D breast
TK-10 renal = tested on: TK-10 renal
U251 CNS = tested on: U251 CNS
UACC-257 melanoma = tested on: UACC-257 melanoma
UACC-62 melanoma = tested on: UACC-62 melanoma
UO-31 renal = tested on: UO-31 renal

CCn1c(SCC(=O)N/N=C/c2ccccc2)nc2ccccc2c1=O
TGI (786-0 renal): 41.7 µM | TGI (A498 renal): 65 µM | TGI (A549 NSCLC): > 46.4 µM | TGI (ACHN renal): > 100 µM | TGI (BT-549 breast): > 100 µM | TGI (CAKI-1 renal): 22.4 µM | TGI (CCRF-CEM leukemia): > 100 µM | TGI (COLO 205 colon): > 100 µM | TGI (DU-145 prostate): > 100 µM | TGI (EKVX NSCLC): > 100 µM | TGI (HCC-2998 colon): > 100 µM | TGI (HCT-116 colon): > 100 µM | TGI (HCT-15 colon): > 100 µM | TGI (HL-60(TB) leukemia): > 100 µM | TGI (HOP-62 NSCLC): > 78.3 µM | TGI (HOP-92 NSCLC): > 79 µM | TGI (HS 578T breast): 49.3 µM | TGI (HT29 colon): > 100 µM | TGI (IGROV1 ovarian): > 93.1 µM | TGI (K-562 leukemia): > 100 µM | TGI (KM12 colon): > 68.8 µM | TGI (LOX IMVI melanoma): > 100 µM | TGI (M14 melanoma): > 100 µM | TGI (MALME-3M melanoma): > 94.6 µM | TGI (MCF7 breast): > 46.4 µM | TGI (MDA-MB-231 breast): 80.8 µM | TGI (MDA-MB-435): 17.6 µM | TGI (MDA-N): > 29.3 µM | TGI (MOLT-4 leukemia): > 100 µM | TGI (NCI-H226 lung): 67.6 µM | TGI (NCI-H23 lung): > 100 µM | TGI (NCI-H460 lung): 9.63 µM | TGI (NCI-H522 lung): 27.5 µM | TGI (NCI/ADR-RES ovarian): > 100 µM | TGI (OVCAR-3 ovarian): > 100 µM | TGI (OVCAR-4 ovarian): 72.8 µM | TGI (OVCAR-5 ovarian): > 100 µM | TGI (OVCAR-8 ovarian): > 82.1 µM | TGI (PC-3 prostate): > 46.4 µM | TGI (RPMI-8226 leukemia): > 100 µM | TGI (RXF 393 renal): 27.2 µM | TGI (SF-268 CNS): > 70.2 µM | TGI (SF-295 CNS): 33.1 µM | TGI (SF-539 CNS): 38.4 µM | TGI (SK-MEL-2 melanoma): > 46.4 µM | TGI (SK-MEL-28 melanoma): > 100 µM | TGI (SK-MEL-5 melanoma): > 100 µM | TGI (SK-OV-3 ovarian): 27.1 µM | TGI (SN12C renal): > 100 µM | TGI (SNB-19 CNS): 71.3 µM | TGI (SNB-75 CNS): 54.5 µM | TGI (SR leukemia): 5.34 µM | TGI (SW-620 colon): > 100 µM | TGI (T-47D breast): > 100 µM | TGI (TK-10 renal): > 91 µM | TGI (U251 CNS): > 70.9 µM | TGI (UACC-257 melanoma): > 100 µM | TGI (UACC-62 melanoma): 52.1 µM | TGI (UO-31 renal): > 100 µM
